US20260042755A1, “GPR6 INVERSE AGONISTS” (MapLight Therapeutics, Inc., priority 2022, published 2026)

Experiments:
GPR6 = target: T1, GPR6 (Homo sapiens, UniProt P46095); experiment: GPR6 antagonist functional cAMP assay (LANCE Ultra cAMP TR-FRET, CHO cells stably expressing GPR6); assay type: cell-based
T1 construct: expressed in transfected cells; host or cells: CHO cells
In short: (§1)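 Suspended cells were plated at 10,000 per well in Krebs-Ringer bicarbonate buffer containing 0.1% BSA and 150 μM Ro 20-1724, then treated with compounds for 45 min at 37 °C. Intracellular cAMP was then quantified by TR-FRET immunoassay.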

GPR3 = target: T2, GPR3 (Homo sapiens, UniProt P46089); experiment: GPR3 antagonist functional cAMP assay (LANCE Ultra cAMP TR-FRET, CHO cells stably expressing GPR3); assay type: cell-based
T2 construct: expressed in transfected cells; host or cells: CHO cells
T2 sequence (P46089 whole entry, species assumed): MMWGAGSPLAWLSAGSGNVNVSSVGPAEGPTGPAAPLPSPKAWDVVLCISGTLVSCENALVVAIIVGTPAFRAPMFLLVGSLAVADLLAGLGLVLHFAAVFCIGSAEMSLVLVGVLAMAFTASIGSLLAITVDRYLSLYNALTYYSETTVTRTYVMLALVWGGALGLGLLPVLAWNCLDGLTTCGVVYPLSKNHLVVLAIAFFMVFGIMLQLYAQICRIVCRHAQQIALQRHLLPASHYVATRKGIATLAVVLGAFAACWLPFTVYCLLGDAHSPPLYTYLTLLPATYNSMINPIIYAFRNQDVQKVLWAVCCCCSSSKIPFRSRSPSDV
In short: as §1

[1] = CHO cells stably expressing GPR6, cAMP assay
[2] = CHO cells stably expressing GPR3, cAMP assay
[3] = CHO cells stably expressing GPR6, cAMP assay (Example 24)
[4] = CHO cells stably expressing GPR3, cAMP assay (Example 24)

T1 sequence (P46095 whole entry): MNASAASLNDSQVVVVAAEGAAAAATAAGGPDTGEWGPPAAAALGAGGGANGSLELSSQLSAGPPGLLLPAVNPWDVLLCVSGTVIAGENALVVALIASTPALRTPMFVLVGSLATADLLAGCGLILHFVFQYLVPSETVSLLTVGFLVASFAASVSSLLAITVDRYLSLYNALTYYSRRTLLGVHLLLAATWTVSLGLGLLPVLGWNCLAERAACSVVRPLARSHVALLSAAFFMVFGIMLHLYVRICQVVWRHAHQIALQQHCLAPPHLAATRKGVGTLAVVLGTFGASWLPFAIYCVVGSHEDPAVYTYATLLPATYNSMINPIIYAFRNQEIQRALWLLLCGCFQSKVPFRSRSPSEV

| Compound | IC50 (GPR6; [3]) | IC50 (GPR3; [4]) | further results |
| --- | --- | --- | --- |
| CC(=O)N1CCc2nc(N3CCN(Cc4ccc(Cl)cc4F)CC3)c(-c3cnn(C)c3)nc2C1 [Compound 348, 1-(2-{4-[(4-chloro-2-fluorophenyl)methyl]piperazin-1-yl}-3-(1-methyl-1H-pyrazol-4-yl)-5H,6H,7H,8H-pyrido[3,4-b]pyrazin-6-yl)ethan-1-one] |  |  | IC50 (GPR6; procedure of Example 24): 0.1 to 1 µM; IC50 (GPR3; procedure of Example 24): 1 to 30 µM |
| CC(=O)N1CCc2nc(N3CCC(Oc4ccc(F)cc4F)CC3)c(C3CCN(C4COC4)C3)nc2C1 (stereo not shown) [Compound 544, 1-{2-[4-(2,4-difluorophenoxy)-1-piperidyl]-3-[1-(3-oxetanyl)-3-pyrrolidinyl]-5,6,7,8-tetrahydro-1,4,6-triaza-6-naphthyl}-1-ethanone] |  |  | IC50 (GPR6; [1]): 1 to 30 µM; IC50 (GPR3; [2]): 1 to 30 µM |
| CCn1cc(-c2nc3c(nc2N2CCC(Oc4ccc(F)cc4F)CC2)CCN(C(=O)OC(C)(C)C)C3)cn1 [Compound 260, tert-butyl 2-[4-(2,4-difluorophenoxy)piperidin-1-yl]-3-(1-ethyl-1H-pyrazol-4-yl)-5H,6H,7H,8H-pyrido[3,4-b]pyrazine-6-carboxylate] | 1 to 30 µM | 1 to 30 µM |  |
| CC(=O)N1CCc2nc(N3CCN(Cc4ccn[nH]4)CC3)c(-c3cnn(C)c3)nc2C1 [Compound 524, 1-[3-(1-methyl-4-pyrazolyl)-2-{4-[(5-pyrazolyl)methyl]-1-piperazinyl}-5,6,7,8-tetrahydro-1,4,6-triaza-6-naphthyl]-1-ethanone] |  |  | IC50 (GPR6; [1]): ≥ 30 µM; IC50 (GPR3; [2]): ≥ 30 µM |
| CNC(=O)CN1CCc2nc(N3CCC(Oc4ccc(F)cc4F)CC3)c(-c3cn[nH]c3)nc2C1 [Compound 145, 2-{2-[4-(2,4-difluorophenoxy)piperidin-1-yl]-3-(1H-pyrazol-4-yl)-5H,6H,7H,8H-pyrido[3,4-b]pyrazin-6-yl}-N-methylacetamide] | 1 to 30 µM | 1 to 30 µM |  |
| CC(=O)N1CCc2nc(N3CCC(Oc4ccc(F)cc4F)CC3)c(-c3cncc(Cl)n3)nc2C1 [Compound 243] | 1 to 30 µM | 1 to 30 µM |  |
| CC(=O)N1CCc2nc(N3CCN(C(=O)c4ccc(F)cc4Cl)CC3)c(-c3cnn(C)c3)nc2C1 [Compound 253, 1-{2-[4-(2-chloro-4-fluorobenzoyl)piperazin-1-yl]-3-(1-methyl-1H-pyrazol-4-yl)-5H,6H,7H,8H-pyrido[3,4-b]pyrazin-6-yl}ethan-1-one] | 1 to 30 µM | 1 to 30 µM |  |
| CC(=O)N1CCC=C(c2nc3c(nc2N2CCC(Oc4ccc(F)cc4F)CC2)CCN(C(C)=O)C3)C1 [Compound 71, 1-[3-(1-acetyl-1,2,5,6-tetrahydropyridin-3-yl)-2-[4-(2,4-difluorophenoxy)piperidin-1-yl]-5H,6H,7H,8H-pyrido[3,4-b]pyrazin-6-yl]ethan-1-one] | 1 to 30 µM | 1 to 30 µM |  |
| CC(C)(O)C(O)c1cc2nc(-c3cnn(C(F)F)c3)c(N3CCN(Cc4ccccc4F)CC3)nc2cn1 (single isomer, unassigned) [Compound 668, 1-{2-[1-(difluoromethyl)-4-pyrazolyl]-3-{4-[(o-fluorophenyl)methyl]-1-piperazinyl}-1,4,6-triaza-7-naphthyl}-2-methyl-1,2-propanediol] |  |  | IC50 (GPR6; procedure of Example 24): < 0.1 µM; IC50 (GPR3; procedure of Example 24): 1 to 30 µM |

Second part, led by results:

| IC50 (GPR6; [3]) | IC50 (GPR3; [4]) | Compound | further results |
| --- | --- | --- | --- |
| 0.1 to 1 µM | 1 to 30 µM | CCS(=O)(=O)N1CCc2nc(N3CCC(Oc4ccc(F)cc4F)CC3)c(-c3cnn(C4CCCCO4)c3)nc2C1 (stereo not shown) [Compound 177, 4-(2,4-difluorophenoxy)-1-[6-(ethanesulfonyl)-3-[1-(oxan-2-yl)-1H-pyrazol-4-yl]-5H,6H,7H,8H-pyrido[3,4-b]pyrazin-2-yl]piperidine] |  |
| 0.1 to 1 µM | 1 to 30 µM | CNc1nccc(-c2nc3c(nc2N2CCC(Oc4ccc(F)cc4F)CC2)CCN(C(C)=O)C3)n1 [Compound 473, 1-{2-[4-(2,4-difluorophenoxy)piperidin-1-yl]-3-[2-(methylamino)pyrimidin-4-yl]-5H,6H,7H,8H-pyrido[3,4-b]pyrazin-6-yl}ethan-1-one] |  |
